# Test system: MV-4-11 cells
# Test: Gene expression microarray analysis (Affymetrix PrimeView) and GSEA
# Type: cell-based, human
# Design: RFU PODN (11730768_x_at) / Fold change /veh PODN (11730768_x_at) / RFU LINC00158 (11744669_a_at) / Fold change /veh LINC00158 (11744669_a_at) / RFU DUSP10 (11751237_a_at) / Fold change /veh DUSP10 (11751237_a_at) / RFU ID3 (11757404_x_at) / Fold change /veh ID3 (11757404_x_at) / RFU PLEKHG5 (11737974_s_at) / Fold change /veh PLEKHG5 (11737974_s_at) / RFU LRRC4B (11730491_at) / Fold change /veh LRRC4B (11730491_at) / RFU GIMAP4 (11747438_a_at) / Fold change /veh GIMAP4 (11747438_a_at) / RFU KRT8 (11758183_x_at) / Fold change /veh KRT8 (11758183_x_at) / RFU CNN1 (11734310_a_at) / Fold change /veh CNN1 (11734310_a_at) / RFU VPS37D (11726825_at) / Fold change /veh VPS37D (11726825_at) / RFU C10orf10 (11716522_x_at) / Fold change /veh C10orf10 (11716522_x_at) / RFU KIR2DL2 /// KIR2DL4 /// KIR2DL5A /// KIR2DL5B /// KIR2DS1 /// KIR2DS2 /// KIR2DS3 /// KIR2DS4 /// KIR3DL3 /// KIR3DL3 /// KIR3DS1 (11738374_at) / Fold change /veh KIR2DL2 /// KIR2DL4 /// KIR2DL5A /// KIR2DL5B /// KIR2DS1 /// KIR2DS2 /// KIR2DS3 /// KIR2DS4 /// KIR3DL3 /// KIR3DL3 /// KIR3DS1 (11738374_at) / RFU C1QL1 (11718748_at) / Fold change /veh C1QL1 (11718748_at) / RFU TMPRSS4 (11747572_a_at) / Fold change /veh TMPRSS4 (11747572_a_at) / RFU HAMP (11756126_x_at) / Fold change /veh HAMP (11756126_x_at) / RFU RNFT2 (11725882_a_at) / Fold change /veh RNFT2 (11725882_a_at) / RFU NR4A2 (11747474_a_at) / Fold change /veh NR4A2 (11747474_a_at) / RFU ABCC12 (11746883_a_at) / Fold change /veh ABCC12 (11746883_a_at) / RFU TMEM136 (11760407_x_at) / Fold change /veh TMEM136 (11760407_x_at) / RFU CLDN22 /// WWC2 (11732394_at) / Fold change /veh CLDN22 /// WWC2 (11732394_at) / RFU HLA-DPB1 (11760878_x_at) / Fold change /veh HLA-DPB1 (11760878_x_at) / RFU SPINT1 (11716480_a_at) / Fold change /veh SPINT1 (11716480_a_at) / RFU GAP43 (11754022_s_at) / Fold change /veh GAP43 (11754022_s_at) / RFU A4GNT (11735810_at) / Fold change /veh A4GNT (11735810_at) / RFU PRB3 (11715151_x_at) / Fold change /veh PRB3 (11715151_x_at) / RFU TUBB4B (11761932_at) / Fold change /veh TUBB4B (11761932_at) / RFU CAPN14 (11732068_a_at) / Fold change /veh CAPN14 (11732068_a_at) / RFU TMCC2 (11721928_a_at) / Fold change /veh TMCC2 (11721928_a_at) / RFU IRGQ (11745062_a_at) / Fold change /veh IRGQ (11745062_a_at) / RFU FAM174B (11720279_a_at) / Fold change /veh FAM174B (11720279_a_at) / RFU TMPRSS4 (11748680_a_at) / Fold change /veh TMPRSS4 (11748680_a_at) / RFU FAM212B (11763350_a_at) / Fold change /veh FAM212B (11763350_a_at) / RFU PLEKHG5 (11743358_a_at) / Fold change /veh PLEKHG5 (11743358_a_at) / RFU ZSCAN30 (11745921_a_at) / Fold change /veh ZSCAN30 (11745921_a_at) / RFU CMKLR1 (11741424_a_at) / Fold change /veh CMKLR1 (11741424_a_at) / RFU LOC101060620 /// MAPK8IP1 (11723275_at) / Fold change /veh LOC101060620 /// MAPK8IP1 (11723275_at) / RFU SPTSSB (11747773_x_at) / Fold change /veh SPTSSB (11747773_x_at) / RFU PRSS12 (11739890_at) / Fold change /veh PRSS12 (11739890_at) / RFU BIN1 (11741810_x_at) / Fold change /veh BIN1 (11741810_x_at) / RFU WNT11 (11732464_a_at) / Fold change /veh WNT11 (11732464_a_at) / RFU C10orf10 (11716521_a_at) / Fold change /veh C10orf10 (11716521_a_at) / RFU C5orf56 (11738089_at) / Fold change /veh C5orf56 (11738089_at) / RFU CYB561 (11721691_x_at) / Fold change /veh CYB561 (11721691_x_at) / RFU ANKRD19P (11752326_a_at) / Fold change /veh ANKRD19P (11752326_a_at) / RFU OR2T12 /// OR2T33 /// OR2T8 (11738714_s_at) / Fold change /veh OR2T12 /// OR2T33 /// OR2T8 (11738714_s_at) / RFU VCAN (11748164_a_at) / Fold change /veh VCAN (11748164_a_at) / RFU JSRP1 (11732532_at) / Fold change /veh JSRP1 (11732532_at) / RFU KRTAP10-11 (11738290_x_at) / Fold change /veh KRTAP10-11 (11738290_x_at) / RFU MYO3A (11730013_a_at) / Fold change /veh MYO3A (11730013_a_at) / RFU EBF3 (11725865_a_at) / Fold change /veh EBF3 (11725865_a_at) / RFU CAMK2N1 (11719241_x_at) / Fold change /veh CAMK2N1 (11719241_x_at) / RFU C5orf56 (11738088_a_at) / Fold change /veh C5orf56 (11738088_a_at) / RFU OLFML3 (11715873_a_at) / Fold change /veh OLFML3 (11715873_a_at) / RFU LOC100653217 /// NTM (11731650_a_at) / Fold change /veh LOC100653217 /// NTM (11731650_a_at) / RFU MAPK11 (11762145_a_at) / Fold change /veh MAPK11 (11762145_a_at) / RFU FIZ1 (11724087_x_at) / Fold change /veh FIZ1 (11724087_x_at) / RFU OASL (11726364_x_at) / Fold change /veh OASL (11726364_x_at) / RFU SOX15 (11748057_x_at) / Fold change /veh SOX15 (11748057_x_at) / RFU CD79A (11719716_a_at) / Fold change /veh CD79A (11719716_a_at) / RFU HIST1H1D (11736915_at) / Fold change /veh HIST1H1D (11736915_at) / RFU CASKIN2 (11723855_a_at) / Fold change /veh CASKIN2 (11723855_a_at) / RFU LOC730098 (11760151_x_at) / Fold change /veh LOC730098 (11760151_x_at) / RFU OR4N2 (11742367_at) / Fold change /veh OR4N2 (11742367_at) / RFU PRRT2 (11749266_a_at) / Fold change /veh PRRT2 (11749266_a_at) / RFU SNX32 (11753110_a_at) / Fold change /veh SNX32 (11753110_a_at) / RFU CDHR5 (11726645_a_at) / Fold change /veh CDHR5 (11726645_a_at) / RFU RCAN1 (11760418_a_at) / Fold change /veh RCAN1 (11760418_a_at) / RFU FAM167A (11723789_a_at) / Fold change /veh FAM167A (11723789_a_at) / RFU FAM26E (11764081_at) / Fold change /veh FAM26E (11764081_at) / RFU ISYNA1 (11749810_s_at) / Fold change /veh ISYNA1 (11749810_s_at) / RFU ACY1 (11761880_at) / Fold change /veh ACY1 (11761880_at) / RFU 11764098_at / Fold change /veh 11764098_at / RFU SAMD14 (11745864_x_at) / Fold change /veh SAMD14 (11745864_x_at) / RFU NPB (11741838_a_at) / Fold change /veh NPB (11741838_a_at) / RFU TMPRSS6 (11731388_a_at) / Fold change /veh TMPRSS6 (11731388_a_at) / RFU KRTAP10-2 (11738614_at) / Fold change /veh KRTAP10-2 (11738614_at) / RFU ARHGAP8 /// PRR5-ARHGAP8 (11727945_x_at) / Fold change /veh ARHGAP8 /// PRR5-ARHGAP8 (11727945_x_at) / RFU KRTAP5-7 /// NADSYN1 (11734609_at) / Fold change /veh KRTAP5-7 /// NADSYN1 (11734609_at) / RFU RASL12 (11751679_a_at) / Fold change /veh RASL12 (11751679_a_at) / RFU CDKN2B (11736163_a_at) / Fold change /veh CDKN2B (11736163_a_at) / RFU PRF1 (11729649_at) / Fold change /veh PRF1 (11729649_at) / RFU, ZNF638 /// ZNF638-IT1 / Fold change vs veh, ZNF638 /// ZNF638-IT1 / RFU, PANK3 / Fold change vs veh, PANK3 / RFU, SH3YL1 / Fold change vs veh, SH3YL1 / RFU, ZEB2 / Fold change vs veh, ZEB2 / RFU, NRIP1 / Fold change vs veh, NRIP1 / RFU, PTTG1IP / Fold change vs veh, PTTG1IP / RFU, CAPN2 / Fold change vs veh, CAPN2 / RFU, MED14 / Fold change vs veh, MED14 / RFU, SNORA58 / Fold change vs veh, SNORA58 / RFU, C1orf63 / Fold change vs veh, C1orf63 / RFU, LRRFIP1 / Fold change vs veh, LRRFIP1 / RFU, NDUFAF7 / Fold change vs veh, NDUFAF7 / RFU, SLC12A2 / Fold change vs veh, SLC12A2 / RFU, IBTK / Fold change vs veh, IBTK / RFU, ESF1 / Fold change vs veh, ESF1 / Fold change vs veh, TMEM50B / RFU, TAOK1 / Fold change vs veh, TAOK1 / RFU, ACBD3 / Fold change vs veh, ACBD3 / RFU, TMA16 / Fold change vs veh, TMA16 / RFU, RWDD3 / Fold change vs veh, RWDD3 / RFU, BCAT1 / Fold change vs veh, BCAT1 / RFU, EDEM3 / Fold change vs veh, EDEM3 / RFU, TMEM33 / Fold change vs veh, TMEM33 / RFU, WDR75 / Fold change vs veh, WDR75 / RFU, AHCTF1 / Fold change vs veh, AHCTF1 / RFU, TFRC / Fold change vs veh, TFRC / RFU, ZDHHC17 / Fold change vs veh, ZDHHC17 / RFU, NOM1 / Fold change vs veh, NOM1 / RFU, ARL8B / Fold change vs veh, ARL8B / RFU, ZBTB11 / Fold change vs veh, ZBTB11 / RFU, TAMM41 / Fold change vs veh, TAMM41 / RFU, KIAA1704 /// LOC100996395 / Fold change vs veh, KIAA1704 /// LOC100996395 / RFU, ING1 / Fold change vs veh, ING1 / RFU, TRMT61B / Fold change vs veh, TRMT61B / RFU, FUBP3 / Fold change vs veh, FUBP3 / RFU, TP53 / Fold change vs veh, TP53 / RFU, TNKS2 / Fold change vs veh, TNKS2 / RFU, ZFP14 / Fold change vs veh, ZFP14 / RFU, ACTR2 / Fold change vs veh, ACTR2 / RFU, PPP3R1 / Fold change vs veh, PPP3R1 / RFU, PIK3R1 / Fold change vs veh, PIK3R1 / RFU, HNRNPA1 / Fold change vs veh, HNRNPA1 / RFU, RNF170 / Fold change vs veh, RNF170 / RFU, ZNF28 / Fold change vs veh, ZNF28 / RFU, RNGTT / Fold change vs veh, RNGTT / RFU, OGT / Fold change vs veh, OGT / RFU, BRD1 / Fold change vs veh, BRD1 / RFU, MARS / Fold change vs veh, MARS / RFU, ZNF655 / Fold change vs veh, ZNF655 / RFU, FAHD1 / Fold change vs veh, FAHD1 / RFU, BDP1 / Fold change vs veh, BDP1 / RFU, LRRCC1 / Fold change vs veh, LRRCC1 / RFU, ARID1A / Fold change vs veh, ARID1A / RFU, ZNF146 / Fold change vs veh, ZNF146 / RFU, ZNF330 / Fold change vs veh, ZNF330 / RFU, GPN3 / Fold change vs veh, GPN3 / RFU, C9orf123 / Fold change vs veh, C9orf123 / RFU, N4BP2L2 / Fold change vs veh, N4BP2L2 / RFU, ARFIP1 / Fold change vs veh, ARFIP1 / RFU, FAM179B / Fold change vs veh, FAM179B / RFU, BCL10 / Fold change vs veh, BCL10 / RFU, UHRF1BP1L / Fold change vs veh, UHRF1BP1L / RFU, BET1 / Fold change vs veh, BET1 / RFU, CNOT2 / Fold change vs veh, CNOT2 / RFU, ZNF268 / Fold change vs veh, ZNF268 / Fold change vs veh, ZNF507 / RFU, DGCR2 / Fold change vs veh, DGCR2 / RFU, WDSUB1 / Fold change vs veh, WDSUB1 / Fold change vs veh, HSP90B1 /// MIR3652 / RFU, ADSS / Fold change vs veh, ADSS / RFU, GK / Fold change vs veh, GK / RFU, ZNF148 / Fold change vs veh, ZNF148 / RFU, TAF9 / Fold change vs veh, TAF9 / RFU, SLC1A5 / Fold change vs veh, SLC1A5 / RFU, SLMO2 / Fold change vs veh, SLMO2 / RFU, ABCC4 / Fold change vs veh, ABCC4 / RFU, LOC101060439 /// RAP1B / Fold change vs veh, LOC101060439 /// RAP1B / RFU, RFX7 / Fold change vs veh, RFX7 / RFU, GTPBP10 / Fold change vs veh, GTPBP10 / RFU, CNEP1R1 / Fold change vs veh, CNEP1R1 / RFU, BIVM-ERCC5 /// ERCC5 / Fold change vs veh, BIVM-ERCC5 /// ERCC5 / RFU, ILF3 / Fold change vs veh, ILF3 / RFU 11762660_at / Fold change /veh 11762660_at / RFU VCAN (11757783_s_at) / Fold change /veh VCAN (11757783_s_at) / RFU DDX43 (11728927_at) / Fold change /veh DDX43 (11728927_at) / RFU KRT8 (11758188_x_at) / Fold change /veh KRT8 (11758188_x_at) / RFU NKD1 (11759106_at) / Fold change /veh NKD1 (11759106_at) / RFU SRD5A1 (11742802_a_at) / Fold change /veh SRD5A1 (11742802_a_at) / RFU TPSAB1 /// TPSB2 (11721975_s_at) / Fold change /veh TPSAB1 /// TPSB2 (11721975_s_at) / RFU GSTM3 (11746129_a_at) / Fold change /veh GSTM3 (11746129_a_at) / RFU IL23R (11737362_x_at) / Fold change /veh IL23R (11737362_x_at) / RFU TMEM51 (11727254_a_at) / Fold change /veh TMEM51 (11727254_a_at) / RFU PIWIL2 (11732686_x_at) / Fold change /veh PIWIL2 (11732686_x_at) / RFU ORM1 (11744905_x_at) / Fold change /veh ORM1 (11744905_x_at) / RFU CCDC152 (11743942_at) / Fold change /veh CCDC152 (11743942_at) / RFU ECM1 (11717891_a_at) / Fold change /veh ECM1 (11717891_a_at) / RFU IL23R (11748794_a_at) / Fold change /veh IL23R (11748794_a_at) / RFU TNFAIP8L3 (11732012_x_at) / Fold change /veh TNFAIP8L3 (11732012_x_at) / RFU MBOAT4 (11741988_at) / Fold change /veh MBOAT4 (11741988_at) / RFU 11764193_at / Fold change /veh 11764193_at / RFU TMEM53 (11763286_at) / Fold change /veh TMEM53 (11763286_at) / RFU MAGEB2 (11727129_at) / Fold change /veh MAGEB2 (11727129_at) / RFU TMEM200A (11744735_a_at) / Fold change /veh TMEM200A (11744735_a_at) / RFU CCDC152 (11751479_a_at) / Fold change /veh CCDC152 (11751479_a_at) / RFU FAM211A (11726209_a_at) / Fold change /veh FAM211A (11726209_a_at) / RFU RGS16 (11746705_a_at) / Fold change /veh RGS16 (11746705_a_at) / RFU VCAN (11755009_s_at) / Fold change /veh VCAN (11755009_s_at) / RFU RHOB (11743442_s_at) / Fold change /veh RHOB (11743442_s_at) / RFU RGS16 (11720943_a_at) / Fold change /veh RGS16 (11720943_a_at) / RFU RGS16 (11720944_at) / Fold change /veh RGS16 (11720944_at) / RFU, VPS4B / Fold change vs veh, VPS4B / RFU, CREB1 / Fold change vs veh, CREB1 / RFU, DNAJC13 / Fold change vs veh, DNAJC13 / RFU, GNAQ / Fold change vs veh, GNAQ / RFU, CDK5R1 / Fold change vs veh, CDK5R1 / RFU, ZRANB3 / Fold change vs veh, ZRANB3 / RFU, CUL4A / Fold change vs veh, CUL4A / RFU, CCNY / Fold change vs veh, CCNY / RFU, UFL1 / Fold change vs veh, UFL1 / RFU, COG3 / Fold change vs veh, COG3 / RFU, DIAPH2 / Fold change vs veh, DIAPH2 / RFU, SKA2 / Fold change vs veh, SKA2 / RFU, AFF3 / Fold change vs veh, AFF3 / RFU, LMF1 / Fold change vs veh, LMF1 / RFU, IPO11 / Fold change vs veh, IPO11 / RFU, DFFB / Fold change vs veh, DFFB / RFU, FOXP1 / Fold change vs veh, FOXP1 / RFU, CARD8 / Fold change vs veh, CARD8 / RFU, STRN3 / Fold change vs veh, STRN3 / RFU, ADK / Fold change vs veh, ADK / RFU, RASSF2 / Fold change vs veh, RASSF2 / RFU, WIPF1 / Fold change vs veh, WIPF1 / RFU, LARP1B / Fold change vs veh, LARP1B / RFU, RASA1 / Fold change vs veh, RASA1 / RFU, RB1 / Fold change vs veh, RB1 / RFU, PPFIA1 / Fold change vs veh, PPFIA1 / RFU, MAT2A / Fold change vs veh, MAT2A / RFU, CCT5 / Fold change vs veh, CCT5 / RFU, WDR92 / Fold change vs veh, WDR92 / RFU, CUX1 / Fold change vs veh, CUX1 / RFU, TTC7A / Fold change vs veh, TTC7A / RFU, TMEM135 / Fold change vs veh, TMEM135 / RFU, DEPTOR / Fold change vs veh, DEPTOR / RFU, CPM / Fold change vs veh, CPM / RFU, DNAJB6 / Fold change vs veh, DNAJB6 / RFU, CACNA2D3 / Fold change vs veh, CACNA2D3 / RFU, DTX4 / Fold change vs veh, DTX4 / RFU, TFCP2 / Fold change vs veh, TFCP2 / RFU, GMCL1 /// GMCL1P1 / Fold change vs veh, GMCL1 /// GMCL1P1 / RFU, AEBP2 / Fold change vs veh, AEBP2 / RFU, SNHG1 /// SNORD22 /// SNORD25 /// SNORD26 /// SNORD27 /// SNORD28 /// SNORD29 /// SNORD31 / Fold change vs veh, SNHG1 /// SNORD22 /// SNORD25 /// SNORD26 /// SNORD27 /// SNORD28 /// SNORD29 /// SNORD31 / Fold change (Aza/veh), C12orf56 (ProbeSet 11735607_a_at) / Fold change (ACY-1035/veh), C12orf56 (ProbeSet 11735607_a_at) / Fold change (Aza/veh), FGFR1OP (ProbeSet 11751329_s_at) / Fold change (ACY-1035/veh), FGFR1OP (ProbeSet 11751329_s_at) / Fold change (Aza/veh), VPS36 (ProbeSet 11739960_a_at) / Fold change (ACY-1035/veh), VPS36 (ProbeSet 11739960_a_at) / RFU SYPL1 (11715823_x_at) / Fold change /veh SYPL1 (11715823_x_at) / RFU IGFBP7 (11715501_s_at) / Fold change /veh IGFBP7 (11715501_s_at) / RFU REEP3 (11722064_at) / Fold change /veh REEP3 (11722064_at) / RFU IGLL1 (11728026_x_at) / Fold change /veh IGLL1 (11728026_x_at): dose or concentration left out as unconfirmed
# Conditions: ProbeSet 11715478_a_at; LIST B
smiles,measurement,value
Nc1ncn([C@@H]2O[C@H](CO)[C@@H](O)[C@H]2O)c(=O)n1 [azacitidine],"Fold change vs veh, TFRC",0.85

# From article PMC5218480 (PLoS ONE, 2017)
